≈ marks a conversion by molar mass, not a printed value. Peptide text beside a SMILES is read from it.
Legend:
[1] = system: Micrococcus luteus; assay type: cell-based, Micrococcus luteus (DSM 20030); conditions: 6 h
Description: HaCaT (immortalized human keratinocytes) and HeLa (human cervix carcinoma) cells were cultured in sterile 10 cm petri dishes at 37 °C in a humidified atmosphere of 5% CO2. HaCaT cells were maintained in DMEM containing 4,500 mg/l glucose (DMEMg), 2 mM L-Gln and 10% FBS (fetal bovine serum). HeLa cells were grown in RPMI 1640 supplemented with 4 mM L-Gln and 10% FBS. Bacteria used were Micrococcus luteus (DSM 20030) and Salmonella typhimurium (TA 100). Mueller Hinton (MH) broth agar plates were used for maintenance und MH broth medium was used to carry out antimicrobial activity studies.
Antimicrobial activity of peptide conjugates against gram-positive and gram-negative bacteria was conducted using the p-iodonitrotetrazolium-chloride (INT) violet assay as previously described. INT is a tetrazolium-based reagent which is converted to a pink formazan dye in the presence of metabolically active bacteria.
In brief, M. luteus and S. typhimurium were cultured in MH broth overnight at 37 °C while mild shaking (180 rpm). Overnight-cultured bacteria were added into fresh medium, grown to an optical density of 0.7 at 600 nm and 10 µl bacterial solution were added in triplicate to wells of a 96-well plate (BD Falcon, USA). […] The viability of bacteria relative to untreated bacteria was determined by measuring the absorption at 540 nm on a Tecan infinite M200 plate reader.

[2] = system: Salmonella typhimurium; conditions: murium, 6 h
Description: Antimicrobial activity of peptide conjugates against gram-positive and gram-negative bacteria was conducted using the p-iodonitrotetrazolium-chloride (INT) violet assay as previously described[33].
In brief, M. luteus and S. typhimurium were cultured in MH broth overnight at 37 °C while mild shaking (180 rpm). Overnight-cultured bacteria were added into fresh medium, grown to an optical density of 0.7 at 600 nm and 10 µl bacterial solution were added in triplicate to wells of a 96-well plate (BD Falcon, USA). The peptides used at various concentrations and 180 µl of MH medium were added to each corresponding well and incubated for 6 h at 37 °C. 10 µM chloramphenicol served as positive control and H20 was used as negative control. After incubation time, 10 μl of the freshly prepared INT solution (1 mg/ml in DMSO) were added to each well and incubated for further 30 min at 37 °C. The viability of bacteria relative to untreated bacteria was determined by measuring the absorption at 540 nm on a Tecan infinite M200 plate reader.

[3] = system: human keratinocytes HaCaT; experiment: MTT cell viability assay on HaCaT keratinocytes; assay type: cell-based; conditions: 24 h, 37 °C; for Cytotoxic effect on keratinocytes viability: 10 to 100 µM, serum-free medium, triplicate, n = 3; for Effect on HaCaT cells at higher concentrations: >50 µM
Description: Figure 2 Cytotoxic profile of peptides against human keratinocytes HaCaT. Cells were incubated with indicated concentrations of peptides at 37 °C for 24 h. Cell viability of HaCaT cells was determined by MTT assay relative to untreated cells (set to 100%). As positive control, cells were treated with 70% EtOH for 10 min. Experiments were conducted in triplicate with n = 3. Error bars represent standard deviation. (**p < 0.01; ***p < 0.001).
The toxic effect of the investigated peptides on HaCaT cells was evaluated using the [3(4,5-dimethylthiazol-2yl)2,5-diphenyltetrazolium bromide] (MTT) colorimetric method. MTT is a tetrazolium salt which is reduced to a purple colored formazan product by mitochondrial reductases, present only in metabolically active cells. Keratinocytes were seeded onto a 96-well microtiter plate at a density of 8 × 10^4 cells per well in DMEMg supplemented with 2 mM L-Gln and 2% FBS. After reaching 70–80% confluency, the medium was removed and cells were incubated at 37 °C for 24 h with peptides at different concentrations ranging from 10 to 100 µM (in serum-free medium). After 24 h of incubation, 10 µl of MTT (in PBS, 0.45 mg/ml final) were added to each well. After 4 h incubation, the supernatants were removed and the formazan crystals were dissolved by adding 100 μl of dimethyl sulfoxide (DMSO). For the positive control, cells were treated with 70% EtOH for 10 min. The absorption was measured at 570 nm and at a reference wavelength of 630 nm using Tecan infinite M200 plate reader.

[4] = Circular dichroism spectroscopy (secondary structure); assay type: physicochemical; conditions: for Percentage of the α-helix content: phosphate buffer / Percentage of the α-helix content: 50% TFE: CD, 20 µM peptide, calculated from ellipticity at 222 nm; for Percentage of the α-helix content: phosphate buffer: 10 mM phosphate buffer pH 7.0, 20 °C; for Percentage of the α-helix content: 50% TFE: 10 mM phosphate buffer pH 7.0 with 50% TFE, 20 °C; for R-value: ratio between molar ellipticity values at 222 and 208 nm, in the presence of 50% TFE, R = 1 perfect α-helix
Description: Figure 1 Structural characteristics of investigated peptides. CD spectra were acquired at a peptide concentration of 20 µM in 10 mM phosphate buffer, pH 7.0 (A) and in the additional presence of 50% TFE (B). The percentage of the α-helix content was calculated from the ellipticity value at 222 nm using the following formula: (% α-helix = ((([Θ222]−3000)⁄(−36000−3000)) × 100)[47] (C). R-values represent the ratio between the molar ellipticity values at 222 and 208 nm[20] and R = 1 defined as hallmark for a perfectly built α-helix[48]. Helical wheel projections of Tylotoin-sC18* and sC18*-Tylotoin predicted by HeliQuest (D). TEXT PRINTED IN THE PICTURE: (C) Tylotoin-sC18: Percentage of the α-helix content: phosphate buffer: 12.1; Percentage of the α-helix content: 50% TFE: 46.3; R-value: 0.85 | (C) sC18-Tylotoin: Percentage of the α-helix content: phosphate buffer: 13.1; Percentage of the α-helix content: 50% TFE: 43.5; R-value: 0.87 | (C) Tylotoin-sC18*: Percentage of the α-helix content: phosphate buffer: 10.7; Percentage of the α-helix content: 50% TFE: 46.3; R-value: 0.77 | (C) sC18*-Tylotoin: Percentage of the α-helix content: phosphate buffer: 6.9; Percentage of the α-helix content: 50% TFE: 40.5; R-value: 0.74 | (C) Tylotoin: Percentage of the α-helix content: phosphate buffer: 15.6; Percentage of the α-helix content: 50% TFE: 25.0; R-value: 0.51
CD spectra were recorded from 180 nm to 270 nm in 0.5 nm intervals at 20 °C using a JASCO J-715 spectropolarimeter in an N2 atmosphere. The CD spectra were measured using a 1 mm quartz cuvette and the instrument parameters were set as follows: sensitivity, 100 mdeg; scan mode, continuous; scan speed, 50 nm/min; response time, 2 sec and bandwidth, 1.0 nm. Peptides were dissolved in 10 mM potassium phosphate buffer (pH 7.0) containing either 0 or 50% (v/v) trifluoroethanol (TFE) to a final peptide concentration of 20 µM.

[5] = system: HaCaT cells; experiment: Cellular uptake of CF-labeled peptides into HaCaT cells (flow cytometry and confocal microscopy); assay type: cell-based, human; conditions: 10 µM CF-labeled peptides, 30 min, 37 °C, confocal microscopy
Description: Cells were seeded in a µ-slide 8-well (Ibidi) plate (HaCaT 90,000; HeLa 45,000) and grown to 70–80% confluency. Then, the cells were incubated with CF-labeled peptides in serum-free medium for the requested time at either 4 °C or 37 °C as indicated. The nuclei were stained for 10 min with 0.6 µl Hoechst 33342 nuclear dye (bisbenzimide H33342, 1 mg/ml in H2O, sterile filtered) prior to the end of peptide incubation. Finally, the solutions were removed and cells were treated for 30 s with trypan blue (150 µM in 0.1 M acetate buffer, pH 4.15) for quenching external fluorescence. After washing twice with PBS, 300 µl of FBS-containing growth medium were added to each well. Images were taken by using a Nikon Eclipse Ti confocal laser scanning microscope equipped with a 60x oil-immersion objective (N.A. 1.4, Plan APO VC, Nikon). Images were recorded with Nikon EZ-C1 software and adjusted equally with ImageJ software.
For treatment with endocytosis inhibitor, 80 µM of dynasore (in serum-free medium, Sigma-Aldrich) was added to the cells. After 1 h of incubation at 37 °C, CF-labeled peptide solution (in serum-free medium, 10 µM final) was added and incubated for further 30 min. Afterwards, the cells were handled as described above.
Cells were seeded in triplicate in a 24-well plate (HaCaT 370,000; HeLa 170,000) and grown to 70–80% confluency under normal growth conditions. […]

[6] = cited from earlier work
Source text: Therefore, it was particularly interesting whether the combination of both, Tylotoin ...

## CC(C)C[C@H](NC(=O)CNC(=O)[C@H](CCCCN)NC(=O)[C@H](CS)NC(=O)[C@@H](NC(=O)[C@H](CCCNC(=N)N)NC(=O)[C@H](CCCCN)NC(=O)[C@H](CC(N)=O)NC(=O)[C@H](CC(N)=O)NC(=O)[C@H](CCC(N)=O)NC(=O)[C@H](CCCNC(=N)N)NC(=O)[C@@H](NC(=O)[C@H](CS)NC(=O)[C@@H](N)CCCCN)C(C)C)C(C)C)C(=O)N[C@@H](CCCNC(=N)N)C(=O)N[C@@H](CCCCN)C(=O)N[C@@H](CCCNC(=N)N)C(=O)N[C@@H](CC(C)C)C(=O)N[C@@H](CCCNC(=N)N)C(=O)N[C@@H](CCCCN)C(=O)N[C@@H](Cc1ccccc1)C(=O)N[C@@H](CCCNC(=N)N)C(=O)N[C@@H](CC(N)=O)C(=O)N[C@@H](CCCCN)C(N)=O [Tylotoin-sC18*] (H-KCVRQNNKRVCKGLRKRLRKFRNK-NH2; N-terminus assumed)
[1]
  MIC value: 13.47 µM (≈ 40.8 µg/mL)
[2]
  MIC value: ~ 12.64 µM

## KCVRQNNKRVCKGLRKRLRKFRNKIKEK-NH2 [Tylotoin-sC18, chimeric peptide, CPP sC18 fused to the C-terminus of Tylotoin]
[3]
  Cytotoxic effect on keratinocytes viability: no cytotoxic effect at all
[4]
  Percentage of the α-helix content: phosphate buffer: 12.1%
  Percentage of the α-helix content: 50% TFE: 46.3%
  R-value: 0.85

## GLRKRLRKFRNKIKEKKCVRQNNKRVCK-NH2 [sC18-Tylotoin, chimeric peptide, CPP sC18 fused N-terminally to Tylotoin]
[3]
  Effect on HaCaT cells at higher concentrations: negatively affect the cells
[4]
  Percentage of the α-helix content: phosphate buffer: 13.1%
  Percentage of the α-helix content: 50% TFE: 43.5%
  R-value: 0.87

## GLRKRLRKFRNKIKEK-NH2 [sC18, cell penetrating peptide recently developed in the authors' group; control peptide]
[5]
  Intracellular distribution in keratinocytes: some nuclear uptake was visible
[3]
  Effect on HaCaT cells at higher concentrations: negatively affect the cells
[6]
  Antimicrobial activity: moderate antimicrobial activities

## GLRKRLRKFRNKKCVRQNNKRVCK-NH2 [sC18*-Tylotoin, chimeric peptide, CPP sC18* fused N-terminally to Tylotoin]
[3]
  Cytotoxic effect on keratinocytes viability: slight decrease in cell viability
  Difference in relative cell viability between sC18* and sC18*-Tylotoin: about 40%
[4]
  Percentage of the α-helix content: phosphate buffer: 6.9%
  Percentage of the α-helix content: 50% TFE: 40.5%
  R-value: 0.74
